Experimental data from PubChem BioAssay (NCI).
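96-well plates; 48 h exposure; 5 concentrations. Endpoints by linear interpolation between flanking doses. Not reached: highest tested concentration assigned. At the TGI there is no net growth.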

Assays:
Experiment in all cases: DTP human tumour cell line panel, 48 h
SK-MEL-5 melanoma = test system: SK-MEL-5 melanoma
A549 NSCLC = test system: A549 NSCLC
SNB-19 CNS = test system: SNB-19 CNS
OVCAR-5 ovarian = test system: OVCAR-5 ovarian
A498 renal = test system: A498 renal
SN12C renal = test system: SN12C renal
SF-539 CNS = test system: SF-539 CNS
HOP-92 NSCLC = test system: HOP-92 NSCLC
SF-268 CNS = test system: SF-268 CNS
KM12 colon = test system: KM12 colon
HCC-2998 colon = test system: HCC-2998 colon
MOLT-4 leukemia = test system: MOLT-4 leukemia
HL-60(TB) leukemia = test system: HL-60(TB) leukemia
U251 CNS = test system: U251 CNS
HOP-62 NSCLC = test system: HOP-62 NSCLC
SNB-75 CNS = test system: SNB-75 CNS
TK-10 renal = test system: TK-10 renal
IGROV1 ovarian = test system: IGROV1 ovarian
MDA-MB-435 = test system: MDA-MB-435
K-562 leukemia = test system: K-562 leukemia

Structure (SMILES)	TGI (SK-MEL-5 melanoma) [µM]	TGI (A549 NSCLC) [µM]	TGI (SNB-19 CNS) [µM]	TGI (OVCAR-5 ovarian) [µM]	TGI (A498 renal) [µM]	TGI (SN12C renal) [µM]	TGI (SF-539 CNS) [µM]	TGI (HOP-92 NSCLC) [µM]	TGI (SF-268 CNS) [µM]	TGI (KM12 colon) [µM]	TGI (HCC-2998 colon) [µM]	TGI (MOLT-4 leukemia) [µM]	TGI (HL-60(TB) leukemia) [µM]	TGI (U251 CNS) [µM]	TGI (HOP-62 NSCLC) [µM]	TGI (SNB-75 CNS) [µM]	TGI (TK-10 renal) [µM]	TGI (IGROV1 ovarian) [µM]	TGI (MDA-MB-435) [µM]	TGI (K-562 leukemia) [µM]
CCN(CC)CCC(=O)c1ccc(Oc2ccc(Cl)cc2)cc1	31.2	> 100	> 100	29.9	31.7	31.2	42.1	32.8	34.5	32.2	34.2	42.2	59.8	33.1	24.1	25.5	33.1	41.8	34.2	> 100
CSc1ncc2c(C#N)c3sc4ccccc4n3c(=O)c2n1	> 100	> 100	> 100	> 100	> 100	> 100	> 100	> 100	52.9	> 100	> 100	> 100	> 100	> 100	> 100	> 100	> 100	> 100	> 100	> 100
O=C(CCC(NC(=O)OCc1ccccc1)C(=O)OCc1ccccc1)Nc1ccc(OCc2ccccc2)cc1 (stereo not given)	> 10	> 31.6	> 31.6	> 100	> 10	> 31.6	> 31.6	> 31.6	> 31.6	> 31.6	> 31.6	> 31.6	> 31.6	28	> 100	> 31.6	> 31.6	> 31.6	> 31.6	> 31.6
[N-]=[N+]=Nc1c(C=O)c(=O)n2c3c(cccc13)CCC2	27.5	40.9	42.1	21	28.8	37.5	36.1	4.5	35.4	34.6	33.6	4.26	> 100	19.5	35.2	29.1	10.1	25	20.1	13
COC(=O)C1=CC2CCCC1(O)C(C(C)=O)C2 (stereo not given)	> 100	> 100	> 100	> 100	> 100	> 100	26.6	> 100	> 67.3	> 100	> 100	43.8	47.8	> 100	> 100	> 31.6	> 100	32.9	> 100	> 100
O=c1cc(NNc2ccccc2)[nH]c(=S)[nH]1	> 100	> 100	> 100	> 100	> 100	> 100	> 100	> 100	> 100	> 100	50.5	91.7	62.6	> 100	> 100	> 100	90.6	> 100	> 100	80.2
